In US5332736A, “Anti-convulsant aroyl aminoacylpyrroles” (Ortho Pharmaceutical Corporation, priority 1993, dated 1994):

Test system: toxic extensor seizure
Assay: maximal electroshock test (MES), mouse; block of the toxic extensor seizure (Swinyard 1952 method)
Type: in vivo
Settings: ip
Description: The compound of formula (I) are useful as anticonvulsant agents. The anticonvulsant activity of the subject compounds was determine using a standard "maximal electroshock test" (MES). In this test, activity is indicated by a block of the toxic extensor seizure, as described by Swinyard et al in J. Pharmacol,. Exptl. Therap. 106, 319 (1952). A more recent description of current anticonvulsant drug screening is given in Swinyard et al., in Epilepsia 19, 409 (1978).

SMILES	ED50
CCN(CC)CC(=O)c1cc(C(=O)c2ccc(Cl)cc2)n(C)c1 [Example 9-4]	14.4 mg/kg
Cc1c(C(=O)CN2CCOCC2)c(C)n(C)c1C(=O)c1ccc(Cl)cc1 [Example 9-2]	87.6 mg/kg
Cn1cc(C(=O)CN2CCOCC2)cc1C(=O)c1cccc(Cl)c1 [Example 9-25]	37.4 mg/kg
Cn1cc(C(=O)CN2CCCCC2)cc1C(=O)c1ccc(Cl)cc1 [Example 9-1]	24.4 mg/kg
Cc1c(C(=O)CN2CCCC2)c(C)n(C)c1C(=O)c1ccc(Cl)cc1 [Example 9-5]	15.2 mg/kg
Cn1cc(C(=O)CN2CCCC2)cc1C(=O)c1ccc(Cl)cc1 [Example 9-30]	49.1 mg/kg
Cn1cc(C(=O)CN2CCCC2)cc1C(=O)c1cccc(Cl)c1 [Example 9-24]	16.5 mg/kg
Cn1cc(C(=O)CN2CCCCC2)cc1C(=O)c1ccccc1Cl [Example 9-10]	5.38 mg/kg
Cn1cc(C(=O)CN2CCCCCC2)cc1C(=O)c1ccc(Cl)cc1 [Example 9-11]	27.5 mg/kg
CCN(CC)CC(=O)c1c(C)c(C(=O)c2ccc(Cl)cc2Cl)n(C)c1C [Example 9-34]	14.9 mg/kg
CCN(CC)CC(=O)c1cc(C(=O)c2ccc(OC)cc2)n(C)c1 [Example 9-29]	33 mg/kg
O=C(CN1CCOCC1)c1c[nH]c(C(=O)c2ccc(Cl)cc2)c1 [Example 9-27]	86.2 mg/kg
CCN(CC)CC(=O)c1c(C)c(C(=O)c2ccc(Cl)cc2)n(C)c1C [Example 9-32]	10.3 mg/kg
